According to patent publication US10987319B2, “TFEB activator C1 ameliorates app and tau pathology and rescues cognitive deficits in neurodegenerative diseases” (Hong Kong Baptist University, priority 2018, dated 2021):

Columns and labels:
Format in all cases: in vivo
5×FAD mice [1] = assay: Long-term potentiation (TBS, MED64 multi-electrode array) in hippocampal slices of treated mice; settings: female 5×FAD mice, 10 mg/kg oral 3 months, P<0.001
Protocol: Heterozygous male 5×FAD mice purchased from Jackson laboratory (#006554) were maintained HKBU animal house at 23±2 OC and 60-15% relative humidity with free access to feed and water ad libitum. Male 5×FAD mice were bred with female wild-type C57BL/6. The produced heterozygous litters were maintained until their age 2 months. At 2 months age tail sample is collected in Non-ionic detergent buffer (50 mM KCL, 10 mM Tris-HCL, 2.5 mM mgCl2, 0.1 mg/ml Gelatin, 0.45% v/v NP-40, 0.45% v/v Tween 20 and 100 μgm/ml Proteinase K). Tail samples were incubated in 55° C. for overnight and denatured at 95° C. for 5 mins. Denatured samples were centrifuged, and supernatant is used for genotyping. Mice tail samples were genotyped using standard PCR protocol by using GoTaq G2 Green Master Mix (M7822), for APP, Forward 5′-[…]-3′ (SEQ ID NO: 81) and reverse, 5′-CGGGGGTCTAGTTCTGCAT-3′ (SEQ ID NO: 82). […]
Brain slice preparation: Wild type and 5× mice treated with or without C1 were cervical dislocated and rapidly brain was removed and placed in oxygenated ice-cold sucrose buffer (213 mM sucrose, 10 mM D-glucose, 2.5 mM KCL, 1.25 mM KH2PO4, 2.5 mM CaCl2, 10 mM MgSO4.7H2O, 75 mM NaCl and […] NaHCO3). […] Slope of each Excitatory Post Synaptic Potential […] (fEPSP) is calculated by using MED64-Quad II system and Mobius MED 64 software.

Aβ plaques = assay: Immunohistochemistry of Aβ plaques (4G8 antibody), 3×Tg mice; settings: 10 mg/kg oral 7 months
Protocol: Homozygous 3×Tg mice (APP KM670/671NL (Swedish), MAPT P301L, PSEN1 M146V) were produced in Hong Kong Baptist University animal house and maintained at 23±2° C. temperature, 60±15% relative humidity with free access to food and water ad libitum.
Brain sections (30 μm) were cut on a microtome and stored at 4° C. in PBS+0.1% sodium azide. Sections were permeabilized for 10 min with cold PBS containing 0.5% Triton X-100 and blocked with 3% bovine serum albumin for 1 h at room temperature.

3×Tg mice = assay: Open-field test
Protocol: Homozygous 3×Tg mice (APP KM670/671NL (Swedish), MAPT P301L, PSEN1 M146V) were produced in Hong Kong Baptist University animal house and maintained at 23±2° C. temperature, 60±15% relative humidity with free access to food and water ad libitum. Seven months old WT (129/SvJ, n=6 for male mice; n=10 for female mice) and 3×Tg mice (n=6 for male mice; n=10 for female mice) were treated daily with vehicle (1% CMC-Na; Sigma-Aldrich, C5678]), curcumin analogue C1 (2.5 mg/kg, 5 mg/kg, 10 mg/kg) or curcumin (50 mg/kg; Sigma-Aldrich, 08511) suspended in 1% CMC-Na by oral gavage for 7 months. 3×Tg mice were treated with the indicated compounds for 7 months and then the open-field test was performed to evaluate the exploratory behavior in novel environment. The experiment was conducted 30 min after last dosing time. Mice placed in the center of an empty open field (25 cm×25 cm) were allowed to explore the environment for 5 min without any external disturbance. Ethnovision XT software was used to measure the patterns of movement, time spent in the center and margin, velocity, distance traveled as indicators of agility and exploration.

5×FAD mice [2] = assay: Contextual fear conditioning
Protocol: Male 5×FAD mice were purchased from Jackson laboratories (Stock number 006554) and maintained at 23±2° C. temperature, 60±15% relative humidity with free access to food and water ad libitum. 5×FAD male mice were inbred with wild-type (WT, C57/BL6) female mice to produce heterozygous offspring. Offspring were genotyped to select 5×FAD (APP KM670/671NL (Swedish), APP I716V (Florida), APP V717I (London), PSEN1 M146L (A>C), PSEN1 L286V) gene mutations mice. Two months old WT and 5×FAD mice (male and female, n=10-14 per group) were treated daily with vehicle (1% sodium carbonyl methylcellulose [CMC-Na; Sigma-Aldrich, C5678]), curcumin analogue C1 (5 mg/kg, 10 mg/kg) or curcumin (50 mg/kg; Sigma-Aldrich, 08511) suspended in 1% CMC-Na by oral gavage for 4 months.
Contextual fear conditioning (CFC) was used to evaluate the fear memory reconsolidation of 5×FAD mice after treatment. The experiment was conducted 30 min after the drug treatment in ANY maze fear conditioning system under licensed ANY maze tracking system connected to a Windows XP computer. A digital camera was installed on each chamber and signals were sent to the computer for analysis. The experiments were conducted in two sound proof chambers. All the experiments were conducted with continuous 40 units of white noise and 40 lux white light. During training, mice were allowed to explore the platform for 2.5 min and then received 3 repeated footshock cycles (30 s) at 30 s intervals, each started with a cue tone (28 s, 1500 Hz) and ended by a footshock ([…], 2 s). On the second day the mice were allowed to explore the platform for 3 min followed by a cue tone (30 s, 1500 Hz) without footshock, and the freezing time was recorded. Contextual fear memory formation and the subsequent remote memory stabilization were evaluated by scoring freezing index (the absence of all but respiratory movement).

SMILES: COc1ccccc1/C=C/C(=O)/C=C/c1ccccc1OC [Compound C1, 1,5-bis(2-methoxyphenyl)penta-1,4-dien-3-one]
- synaptic plasticity (long-term potentiation induced by TBS, fEPSP slope) vs vehicle (5×FAD mice [1]): significantly restored
- hippocampal Aβ plaque load (Aβ plaques): reduces hippocampal Aβ plaque load
- time spent in the center vs vehicle (3×Tg mice; 3×Tg mice, 2.5, 5, 10 mg/kg oral 7 months): dose-dependently decreased
- exploratory behavior (3×Tg mice; 3×Tg mice, high dose 10 mg/kg oral 7 months, P<0.001): almost recovered the exploratory behavior to the levels of WT mice
- freezing index (memory reconsolidation) vs vehicle (5×FAD mice [2]; 10 mg/kg oral daily 4 months, P<0.001): significant memory reconsolidation
- memory improvement compared with curcumin (5×FAD mice [2]; C1 10 mg/kg vs curcumin 50 mg/kg): better memory improvement than curcumin
